Test results published in paper PMC5048338, “Discovery of 4,6-disubstituted pyrimidines as potent inhibitors of the heat shock factor 1 (HSF1) stress pathway and CDK9” (Medchemcomm, 2016).

How the values were obtained:
CDK5/p35 = biological target: T1, CDK5/p35 (Homo sapiens, UniProt Q00535); assay: EMD Millipore (Eurofins) CDK panel; type: biochemical; conditions: EMD Millipore screening panel, N = 1
T1 construct: purchased EMD Millipore screening panel (now Eurofins)
Protocol: Therefore 4,6-pyrimidine 3 was submitted to a EMD Millipore CDK panel to assess potency across the selected CDK family members (Table 3). Modest activity was observed against several CDKs; […]. […]. page 4:
(§1) CDK5/p35 (h) is incubated with 8 mM MOPS pH 7.0, 0.2 mM EDTA, 0.1 mg/mL histone H1, 10 mM Mg Acetate and [9-33P]-ATP (specific activity approx. 500 cpm/pmol, concentration as required). The reaction is initiated by the addition of the MgATP mix. After incubation for 40 minutes at room temperature, the reaction is stopped by the addition of 3% phosphoric acid solution. 10 μL of the reaction is then spotted onto a P30 filtermat and washed three times for 5 minutes in 75 mM phosphoric acid and once in methanol prior to drying and scintillation counting. […]
(§2) , 10 mM MgAcetate and […]
as §1, with “(specific” for “CDK5/p35 (h) is incubated with 8 mM MOPS pH 7.0, 0.2 mM EDTA, 0.1 mg/mL histone H1, 10 mM Mg Acetate and [9-33P]-ATP (specific”

CDK6/cyclin D3 = biological target: T2, CDK6/cyclin D3 (Homo sapiens, UniProt Q00534); assay: EMD Millipore (Eurofins) CDK panel; type: biochemical; conditions: EMD Millipore screening panel, N = 1
T2 construct: purchased EMD Millipore screening panel (now Eurofins)
T2 sequence (Q00534 whole entry): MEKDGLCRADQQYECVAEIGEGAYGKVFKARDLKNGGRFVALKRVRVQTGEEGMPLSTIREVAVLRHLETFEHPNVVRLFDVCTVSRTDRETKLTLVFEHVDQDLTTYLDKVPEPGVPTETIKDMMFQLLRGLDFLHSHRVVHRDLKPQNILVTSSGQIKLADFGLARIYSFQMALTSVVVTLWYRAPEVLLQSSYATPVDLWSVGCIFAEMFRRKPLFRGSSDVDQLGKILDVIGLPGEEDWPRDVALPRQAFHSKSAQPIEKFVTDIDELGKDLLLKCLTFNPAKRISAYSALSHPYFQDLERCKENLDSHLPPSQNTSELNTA
T2 sequence (P30281 whole entry partner): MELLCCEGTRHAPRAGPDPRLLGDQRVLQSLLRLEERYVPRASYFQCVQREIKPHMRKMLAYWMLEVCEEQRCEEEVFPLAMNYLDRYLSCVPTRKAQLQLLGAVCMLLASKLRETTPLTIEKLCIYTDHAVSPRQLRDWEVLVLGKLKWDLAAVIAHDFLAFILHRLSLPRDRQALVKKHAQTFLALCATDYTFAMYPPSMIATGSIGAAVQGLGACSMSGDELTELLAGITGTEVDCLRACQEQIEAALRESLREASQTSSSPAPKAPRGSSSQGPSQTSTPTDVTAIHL
Protocol: (§3) Therefore 4,6-pyrimidine 3 was submitted to a EMD Millipore CDK panel to assess potency across the selected CDK family members (Table 3). Modest activity was observed against several CDKs; […]. […]. page 4: […]
as §1, with “mM” for “CDK5/p35 (h) is incubated with 8 mM MOPS pH 7.0, 0.2 mM EDTA, 0.1 mg/mL histone H1, 10 mM”
as §2
as §1, with “(specific” for “CDK5/p35 (h) is incubated with 8 mM MOPS pH 7.0, 0.2 mM EDTA, 0.1 mg/mL histone H1, 10 mM Mg Acetate and [9-33P]-ATP (specific”

CDK7/cyclin H/MAT1 = biological target: T3, CDK7/cyclin H/MAT1 (Homo sapiens, UniProt P50613); assay: EMD Millipore (Eurofins) CDK panel; type: biochemical; conditions: EMD Millipore screening panel, N = 1
T3 construct: purchased EMD Millipore screening panel (now Eurofins)
T3 sequence (P50613 whole entry): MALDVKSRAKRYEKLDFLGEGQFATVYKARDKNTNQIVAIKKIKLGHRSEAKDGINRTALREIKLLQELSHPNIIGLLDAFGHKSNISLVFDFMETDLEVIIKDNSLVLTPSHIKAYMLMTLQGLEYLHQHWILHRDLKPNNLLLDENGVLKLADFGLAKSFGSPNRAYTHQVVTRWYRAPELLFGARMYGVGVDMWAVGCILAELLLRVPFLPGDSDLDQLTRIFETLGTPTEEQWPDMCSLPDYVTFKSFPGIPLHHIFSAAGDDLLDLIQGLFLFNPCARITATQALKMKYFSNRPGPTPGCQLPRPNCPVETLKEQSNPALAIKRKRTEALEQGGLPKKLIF
T3 sequence (P51946 whole entry partner): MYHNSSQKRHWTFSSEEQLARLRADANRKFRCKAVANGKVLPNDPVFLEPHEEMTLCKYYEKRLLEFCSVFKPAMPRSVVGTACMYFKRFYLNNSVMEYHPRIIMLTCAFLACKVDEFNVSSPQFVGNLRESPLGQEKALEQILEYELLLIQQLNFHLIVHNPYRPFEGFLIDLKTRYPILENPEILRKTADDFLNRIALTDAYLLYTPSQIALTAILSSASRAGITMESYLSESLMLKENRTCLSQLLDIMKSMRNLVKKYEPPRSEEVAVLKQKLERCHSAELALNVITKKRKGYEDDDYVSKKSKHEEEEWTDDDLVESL
T3 sequence (P51948 whole entry partner): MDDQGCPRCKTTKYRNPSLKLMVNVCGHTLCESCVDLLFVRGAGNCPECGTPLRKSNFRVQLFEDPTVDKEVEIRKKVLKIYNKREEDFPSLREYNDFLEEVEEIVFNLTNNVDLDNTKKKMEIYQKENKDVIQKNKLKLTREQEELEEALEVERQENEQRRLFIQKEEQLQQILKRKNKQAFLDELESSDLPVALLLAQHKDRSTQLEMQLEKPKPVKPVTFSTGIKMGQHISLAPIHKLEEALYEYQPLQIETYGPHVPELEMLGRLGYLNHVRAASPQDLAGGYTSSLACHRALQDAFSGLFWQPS
Protocol: as §3
as §1, with “mM” for “CDK5/p35 (h) is incubated with 8 mM MOPS pH 7.0, 0.2 mM EDTA, 0.1 mg/mL histone H1, 10 mM”
as §2
as §1, with “(specific” for “CDK5/p35 (h) is incubated with 8 mM MOPS pH 7.0, 0.2 mM EDTA, 0.1 mg/mL histone H1, 10 mM Mg Acetate and [9-33P]-ATP (specific”

CDK9/cyclin T1 = biological target: T4, CDK9/cyclin T1 (Homo sapiens, UniProt P50750); assay: EMD Millipore (Eurofins) CDK panel; type: biochemical
T4 construct: purchased EMD Millipore screening panel (now Eurofins)
T4 sequence (P50750 whole entry): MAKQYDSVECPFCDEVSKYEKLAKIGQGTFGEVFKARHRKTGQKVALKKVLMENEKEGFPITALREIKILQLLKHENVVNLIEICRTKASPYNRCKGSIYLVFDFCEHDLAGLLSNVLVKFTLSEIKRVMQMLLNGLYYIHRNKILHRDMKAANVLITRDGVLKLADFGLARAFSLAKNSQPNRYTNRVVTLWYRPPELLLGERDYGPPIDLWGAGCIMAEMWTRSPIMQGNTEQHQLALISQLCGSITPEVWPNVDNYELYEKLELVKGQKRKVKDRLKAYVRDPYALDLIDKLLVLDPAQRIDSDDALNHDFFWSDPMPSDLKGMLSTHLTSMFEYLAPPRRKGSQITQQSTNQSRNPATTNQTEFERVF
T4 sequence (O60563 whole entry partner): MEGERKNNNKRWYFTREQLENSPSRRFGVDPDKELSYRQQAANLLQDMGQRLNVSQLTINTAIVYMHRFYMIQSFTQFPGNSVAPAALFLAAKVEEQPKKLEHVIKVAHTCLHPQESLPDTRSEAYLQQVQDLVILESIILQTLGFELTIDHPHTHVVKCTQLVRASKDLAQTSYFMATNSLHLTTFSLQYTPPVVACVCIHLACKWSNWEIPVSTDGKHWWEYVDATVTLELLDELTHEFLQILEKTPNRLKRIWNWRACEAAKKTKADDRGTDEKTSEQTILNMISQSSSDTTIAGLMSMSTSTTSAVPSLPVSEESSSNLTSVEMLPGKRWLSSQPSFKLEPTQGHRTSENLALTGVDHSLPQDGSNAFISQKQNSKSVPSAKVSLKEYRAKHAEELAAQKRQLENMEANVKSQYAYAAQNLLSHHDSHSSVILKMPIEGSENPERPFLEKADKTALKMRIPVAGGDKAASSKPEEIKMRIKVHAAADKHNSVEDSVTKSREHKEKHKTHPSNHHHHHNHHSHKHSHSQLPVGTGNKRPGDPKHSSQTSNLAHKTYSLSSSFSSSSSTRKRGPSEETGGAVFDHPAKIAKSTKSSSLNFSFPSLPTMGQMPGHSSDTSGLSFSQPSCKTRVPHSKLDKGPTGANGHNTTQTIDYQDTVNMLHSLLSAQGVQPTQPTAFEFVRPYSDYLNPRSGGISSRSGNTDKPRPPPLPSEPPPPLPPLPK
Protocol: as §3
as §1, with “mM” for “CDK5/p35 (h) is incubated with 8 mM MOPS pH 7.0, 0.2 mM EDTA, 0.1 mg/mL histone H1, 10 mM”
CDK9/cyclinT1 (h) is incubated with 8 mM MOPS pH 7.0, 0.2 mM EDTA, 100 μM […]
as §2
as §1, with “(specific” for “CDK5/p35 (h) is incubated with 8 mM MOPS pH 7.0, 0.2 mM EDTA, 0.1 mg/mL histone H1, 10 mM Mg Acetate and [9-33P]-ATP (specific”

CDK2/cyclinE [1] = biological target: T5, CDK2/cyclinE (Homo sapiens, UniProt P24941); assay: CDK2 enzyme assay: off-chip mobility shift assay; type: biochemical; parameters: purchased Upstate/Millipore
Protocol: CDK2 enzyme assay: Off-chip Mobility SHIFT Assay
All reagents were purchased from Sigma-Aldrich unless otherwise specified. Inhibition of CDK2/cyclinE activity was quantified using an off-chip incubation, mobility shift assay, which uses a microfluidic chip (Caliper Life Sciences) to measure the conversion of a fluorescent peptide substrate to phosphorylated product. An Off-chip Mobility Shift Chip with 12 sippers (Caliper Life Sciences) was prepared for use according to the manufacturer’s instructions using Coating Reagent #3 (Caliper Life Sciences). The off-chip incubation was carried out in white, 384-well, flat bottom, low volume assay plates (Greiner). 5 µL peptide mix (1.5 µM substrate peptide (fluorescein-QSPKKG-CONH2, Bachem) and 90 µM ATP in kinase base buffer (50 mM HEPES, pH7.5 (Calbiochem), 0.06% CHAPSO)) were added to each well of the prepared compound plates which contained 120 nL compound stock solution per well. The reaction was then initiated by the addition of 6 µL enzyme mix (1.0 nM CDK2/cyclin E (Upstate/Millipore), 1.0 mM DTT and 5.0 mM MgCl2 in kinase base buffer). After incubation for 60 min at room temperature, each reaction was terminated by the addition of 10µL of stop solution containing 100 mM HEPES pH 7.5 (Calbiochem), 0.033% Brij-35, 0.22% Coating Reagent #3 (Caliper Life Sciences), 44 mM EDTA and 5 % DMSO. Reaction products were analysed using a Caliper LabChip LC3000 instrument and peak height was used to calculate percentage conversion of substrate to product.
For compound response testing, a 12 point compound concentration range was used. Compounds were acoustically dosed (Echo 555; Labcyte) into assay-ready plates using 11 half log intervals from 100 μM to […] plus a 12th point at 0.01 μM. Each well was backfilled with the required volume up to 120 nL of 100% DMSO to ensure a final 1% v/v DMSO concentration in the assay. In addition to the compound test wells, each plate carried maximum and minimum controls. Staurosporine at 10 μM was used to inhibit CDK2 activity for the minimum control. As a maximum control, 120 nL pure DMSO was added to the wells. Each plate contained at least 11 randomly distributed maximum and minimum controls. After the addition of compounds to the assay plates, the assay was performed as detailed above. Percentage conversion of substrate to product was used to calculate the effect of each compound on the kinase activity of CDK2/cyclinE. Enzyme inhibition model 3, non-linear curve fit analysis within OriginLab™ software was used to fit dose response curves and estimate the […]
concentration of compound required to reduce the enzyme activity to 50% of the conversion calculated from an average of the maximum controls.
Cell-based ELISA (Cellisa) for HSP72 expression
To follow HSP72 protein expression, a product of HSF1 transcriptional activity, Cellisa was developed. Cells (5-8x10^4cells/ml) were seeded into 96-well plates and incubated at 37 °C for 48 h.
Compounds were then added at a range of concentrations and incubated for 1 h before addition of 17-AAG (250 nM). Cells were then incubated for 18 h. The medium was removed and cells were fixed with fixing solution (4% paraformaldehyde, 0.3% TritonX-100 in PBS) for 30 min at 4 °C. The plates were then washed with 0.1% Tween-20/deionised water before blocking with 5% milk for 30 min at 37 °C. After washing the plates, HSP72 antibody (SPA-810, Enzo Life) was added for 1.5 h at 37 °C.
Following 4 x washes, the plates were incubated with europium-labelled anti-mouse antibody (0.6ug/ml) in Delfia assay buffer (Perkin Elmer) for 1 h at 37 °C. After washing the plates, Delfia enhancement solution was added, shaken for 10 min before reading in the Envision plate reader (Perkin-Elmer) with excitation at 340 nm and emission at 615 nm. The plates were washed again before protein determination using the BCA assay. The europium counts were normalised for the amount of protein in each well. The 50% inhibitory concentration value of the compound was then calculated and presented. […]

CDK1/cyclin B = CDK1/cyclin B (Homo sapiens, UniProt P06493); assay: EMD Millipore (Eurofins) CDK panel; conditions: read-out: CDK1/cyclin B IC50; EMD Millipore screening panel, N = 1
Chain of CDK1/cyclin B (P06493 whole entry): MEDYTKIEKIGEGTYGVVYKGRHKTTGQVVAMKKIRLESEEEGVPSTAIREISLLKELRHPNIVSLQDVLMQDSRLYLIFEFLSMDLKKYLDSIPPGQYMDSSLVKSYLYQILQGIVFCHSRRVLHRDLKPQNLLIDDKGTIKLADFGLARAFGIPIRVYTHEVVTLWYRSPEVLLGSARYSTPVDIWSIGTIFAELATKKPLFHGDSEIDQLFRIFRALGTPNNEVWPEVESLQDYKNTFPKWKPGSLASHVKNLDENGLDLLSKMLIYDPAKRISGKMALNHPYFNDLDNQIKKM
Chain of CDK1/cyclin B (P14635 whole entry partner): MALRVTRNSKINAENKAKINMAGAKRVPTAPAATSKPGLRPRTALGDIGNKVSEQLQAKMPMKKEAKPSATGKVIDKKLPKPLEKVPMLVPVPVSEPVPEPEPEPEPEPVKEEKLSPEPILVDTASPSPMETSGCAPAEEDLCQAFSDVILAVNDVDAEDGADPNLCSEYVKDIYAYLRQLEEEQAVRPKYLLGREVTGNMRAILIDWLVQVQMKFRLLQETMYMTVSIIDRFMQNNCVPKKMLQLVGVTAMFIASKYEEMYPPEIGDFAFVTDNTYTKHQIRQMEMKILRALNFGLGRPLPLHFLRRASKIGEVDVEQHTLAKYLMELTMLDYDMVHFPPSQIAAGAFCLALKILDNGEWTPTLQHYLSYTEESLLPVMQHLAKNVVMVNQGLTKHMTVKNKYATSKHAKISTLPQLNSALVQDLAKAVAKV
Protocol: Eurofins CDK panel assay conditions
(§4) CDK1/cyclinB (h) is incubated with 8 mM MOPS pH 7.0, 0.2 mM EDTA, 0.1 mg/mL histone H1, 10 mM MgAcetate and [9-33P]-ATP (specific activity approx. 500 cpm/pmol, concentration as required). The reaction is initiated by the addition of the MgATP mix. After incubation for 40 minutes at room temperature, the reaction is stopped by the addition of 3% phosphoric acid solution. 10 μL of the reaction is then spotted onto a P30 filtermat and washed three times for 5 minutes in 75 mM phosphoric acid and once in methanol prior to drying and scintillation counting.
(§5) CDK2/cyclinE (h) is incubated with 8 mM MOPS pH 7.0, 0.2 mM EDTA, 0.1 mg/mL histone H1, 10
(§6) CDK3/cyclinE (h) is incubated with 8 mM MOPS pH 7.0, 0.2 mM EDTA, 0.1 mg/mL histone H1, 10 mM Mg Acetate and [9-33P]-ATP (specific activity approx. 500 cpm/pmol, concentration as

CDK2/cyclinE [2] = biological target: T5, CDK2/cyclinE; assay: EMD Millipore (Eurofins) CDK panel; conditions: read-out: CDK2/cyclin E IC50; EMD Millipore screening panel, N = 1
Protocol: Eurofins CDK panel assay conditions
as §4, §5, §6

CDK3/cyclin E = CDK3/cyclin E (Homo sapiens, UniProt Q00526); assay: EMD Millipore (Eurofins) CDK panel; conditions: read-out: CDK3/cyclin E IC50; EMD Millipore screening panel, N = 1
Protocol: Eurofins CDK panel assay conditions
as §4, §5, §6

HSF1-stress pathway = assay: ArrayScan HSP72 protein assay (HSF1-stress pathway inhibition, 17-AAG induced)
Protocol: To discover inhibitors of the HSF1-stress pathway, we employed an automated cellular imaging and analysis method (ArrayScan™) that quantifies the ability of a compound to suppress the expression of the HSF1-mediated inducible HSP70 isoform, HSP72.
U2OS cells (1500 per well) were plated in 40 μL of DMEM media (containing 10% fetal calf serum and 2 mM Glutamax T-1) in costar 384-well plates and left overnight at 37 °C and 5% CO2 to adhere.
treatment with compound, all wells except min wells were dosed with 17AAG diluted in DMSO (10
°C and 5% CO2. The following day the cells were fixed by addition of 20 μL/well of 12% formaldehyde with 1:1700 Hoechst in PBS for 10 min at room temperature. The fixative was decanted and the wells washed once with 50 μL of phosphate buffer saline (PBS).The PBS was subsequently aspirated, and the cells were permeabilized by addition of 20 μL/well of PBS 0.3% Triton X-100 for 20 min at room temperature. The wells were then washed with 80 μL of PBS prior to the addition of 20 μL of combined primary and secondary antibodies diluted in PBS (1:10 000 mouse anti-Hsp72
11001 molecular probes), for 2 h at room temperature. The wells were then washed with 50 μL of PBS. Finally, 50 μL of PBS was added to each well, and the plates were sealed ready to analyze.
Analysis was carried out using a Cellomics Arrayscan VTI instrument and the Cellomics Arrayscan Compartmental Analysis algorithm to measure cellular levels of HSP72.
100 μM to 0.1 μM plus a 12th point at 0.01 μM. Each well was backfilled with the required volume up to 120 nL of 100% DMSO to ensure a final 1% v/v DMSO concentration in the assay. In addition to the compound test wells, each plate carried maximum and minimum controls. Staurosporine at 10 μM was used to inhibit CDK2 activity for the minimum control. As a maximum control, 120 nL pure DMSO was added to the wells. Each plate contained at least 11 randomly distributed maximum and minimum controls. After the addition of compounds to the assay plates, the assay was performed as detailed above. Percentage conversion of substrate to product was used to calculate the effect of each compound on the kinase activity of CDK2/cyclinE. Enzyme inhibition model 3, non-linear curve fit analysis within OriginLab™ software was used to fit dose response curves and estimate the

T1 sequence (Q00535 whole entry): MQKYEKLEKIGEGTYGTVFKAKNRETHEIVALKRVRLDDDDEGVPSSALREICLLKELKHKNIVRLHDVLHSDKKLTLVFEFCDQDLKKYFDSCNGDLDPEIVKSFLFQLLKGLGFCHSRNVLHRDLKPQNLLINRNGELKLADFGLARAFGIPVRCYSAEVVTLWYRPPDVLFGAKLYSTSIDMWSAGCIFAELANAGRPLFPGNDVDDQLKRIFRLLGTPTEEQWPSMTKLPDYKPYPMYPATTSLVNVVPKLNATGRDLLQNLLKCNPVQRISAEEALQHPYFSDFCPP
T1 sequence (Q15078 whole entry partner): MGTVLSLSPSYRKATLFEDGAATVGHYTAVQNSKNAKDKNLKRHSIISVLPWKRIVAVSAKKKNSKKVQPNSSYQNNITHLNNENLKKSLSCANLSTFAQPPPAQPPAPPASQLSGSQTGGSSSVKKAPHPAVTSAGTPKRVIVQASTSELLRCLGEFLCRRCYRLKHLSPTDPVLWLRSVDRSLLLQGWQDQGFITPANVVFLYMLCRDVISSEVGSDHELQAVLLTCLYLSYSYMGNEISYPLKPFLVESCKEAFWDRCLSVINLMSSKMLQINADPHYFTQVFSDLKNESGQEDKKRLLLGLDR

CN(C)CCOc1ccc(Nc2cc(-n3cnc4ccccc43)ncn2)nc1 [Compound 3]
IC50 (CDK5/p35): 0.61 µM | IC50 (CDK6/cyclin D3): 1.3 µM | IC50 (CDK7/cyclin H/MAT1): 1.1 µM | IC50 (CDK9/cyclin T1; EMD Millipore screening panel, N = 1): 0.014 µM | ratio of activity CDK9/CyclinT1 (CDK9/cyclin T1; ratio between CDK2/7/9, CDK9 = 1, EMD Millipore Screening Panel): 1 | IC50 (CDK2/cyclinE [1]; biochemical, CDK2/cyclinE, average of two determinations): 0.58 µM | fold more active against CDK2 compared with phenyl compound 2 (CDK2/cyclinE [1]; relative to compound 2): 35 fold | IC50 (CDK1/cyclin B): 1.8 µM | IC50 (CDK2/cyclinE [2]): 2.8 µM | IC50 (CDK3/cyclin E): 3.5 µM | IC50 (HSF1-stress pathway; Homo sapiens, U2OS, read-out: HSF1 IC50): 0.08 µM | fold more potent in the HSF1-stress pathway assay compared with phenyl compound 2 (HSF1-stress pathway; relative to compound 2): approximately 15 fold
